Data: PubChem BioAssay AID330 (DTP/NCI, 2004)
Values joined by “and” are separate entries in the source; they are usually repeats but may differ in a detail not shown here. Equal entries are not always repeated. Inconclusive results and toxic doses are left out.

Test system: P388 leukemia ip, CD2F1 mice, survival T/C
Assay: NCI In Vivo Anticancer Drug Screen. Data for tumor model P388 Leukemia (intraperitoneal) in CD2F1 (CDF1) mice
Settings: endpoint: median survival time, higher = longer survival
Method in brief: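 Mice carrying the transplanted tumor received test compound or vehicle. Survival was recorded in each group, and the value is the treated-group measurement divided by that of the vehicle-treated control group.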

[1] = dose: 50.0 mg/kg/injection, schedule: Q01DX009 (ip), vehicle: saline with Tween-80

For `CCCCCCC1(O)OC(=O)C(C)=C1C` (stereo not given), the T/C (dose: 12.5 mg/kg/injection, schedule: Q04DX003 (ip), vehicle: saline with Tween-80) was 110 % of control, the T/C (dose: 25.0 mg/kg/injection, schedule: Q04DX003 (ip), vehicle: saline with Tween-80) was 94 % of control and the T/C (dose: 50.0 mg/kg/injection, schedule: Q04DX003 (ip), vehicle: saline with Tween-80) was 94 % of control.

In the case of `Cc1[nH]c(N)nc(=S)c1CCCNc1ccc(C(=O)NC(CCC(=O)O)C(=O)O)cc1` (stereo not given), the T/C (dose: 6.25 mg/kg/injection, schedule: Q01DX005 (ip), vehicle: Klucel (hydroxypropylcellulose) (HPC)) is reported as 101 % of control, the T/C (dose: 12.5 mg/kg/injection, schedule: Q01DX005 (ip), vehicle: Klucel (hydroxypropylcellulose) (HPC)) is reported as 99 % of control and the T/C (dose: 25.0 mg/kg/injection, schedule: Q01DX005 (ip), vehicle: Klucel (hydroxypropylcellulose) (HPC)) is reported as 98 % of control.

In the case of `C[N+](C)(C)/N=C(\[O-])Nc1ccccc1`, the T/C [1] is reported as 100 % of control, the T/C (dose: 100.0 mg/kg/injection, schedule: Q01DX009 (ip), vehicle: saline with Tween-80) is reported as 104 % of control and the T/C (dose: 200.0 mg/kg/injection, schedule: Q01DX009 (ip), vehicle: saline with Tween-80) is reported as 89 % of control.

In the case of `O=C1CSC(c2ccc(F)c(F)c2)N1c1nncs1` (stereo not given), the T/C (dose: 60.0 mg/kg/injection, schedule: Q01DX005 (ip), vehicle: saline with Tween-80) is reported as 99 % of control, the T/C (dose: 120.0 mg/kg/injection, schedule: Q01DX005 (ip), vehicle: saline with Tween-80) is reported as 101 % of control and the T/C (dose: 240.0 mg/kg/injection, schedule: Q01DX005 (ip), vehicle: saline with Tween-80) is reported as 101 % of control.

In the case of `C1=C(c2ccccc2)N2CCCNC2(c2ccccc2)CS1` (stereo not given), the T/C (dose: 100.0 mg/kg/injection, schedule: Q04DX002 (ip), vehicle: saline with Tween-80) is reported as 90 % of control, the T/C (dose: 200.0 mg/kg/injection, schedule: Q04DX002 (ip), vehicle: saline with Tween-80) is reported as 90 % of control and the T/C (dose: 400.0 mg/kg/injection, schedule: Q04DX002 (ip), vehicle: saline with Tween-80) is reported as 88 % of control.

`O=C(O)/C=N/NS(=O)(=O)c1ccccc1` was tested, and the T/C (dose: 12.5 mg/kg/injection, schedule: Q01DX009 (ip), vehicle: water) was 113 % of control, the T/C (dose: 50.0 mg/kg/injection, schedule: Q01DX009 (ip), vehicle: water) was 153 % of control and the T/C (dose: 75.0 mg/kg/injection, schedule: Q01DX009 (ip), vehicle: water) was 163 % of control. For the same molecule, the T/C (dose: 100.0 mg/kg/injection, schedule: Q01DX009 (ip), vehicle: water) was 99 % of control.

In the case of `COc1cc2c(cc1Oc1ccc(OC)c3c1CC1c4c(cc(OC)c(OC)c4-3)CCN1C)CC1c3c(cc(OC)c(OC)c3-2)CCN1C` (stereo not given), the T/C (dose: 20.0 mg/kg/injection, schedule: Q01DX009 (ip), vehicle: water) is reported as 94 % of control, the T/C (dose: 40.0 mg/kg/injection, schedule: Q01DX009 (ip), vehicle: water) is reported as 101 % of control and the T/C (dose: 80.0 mg/kg/injection, schedule: Q01DX009 (ip), vehicle: water) is reported as 93 % of control. For the same molecule, the T/C (dose: 160.0 mg/kg/injection, schedule: Q01DX009 (ip), vehicle: water) was 93 % of control.

In the case of `COC1C(OC2CCC3(C=O)C4CCC5(C)C(C6=CC(=O)OC6)CCC5(O)C4CCC3(O)C2)OC(C)C(O)C1OC` (stereo not given), the T/C (dose: 0.35 mg/kg/injection, schedule: Q01DX009 (ip), vehicle: saline) is reported as 99 % of control, the T/C (dose: 0.7 mg/kg/injection, schedule: Q01DX009 (ip), vehicle: saline) is reported as 100 % of control and the T/C (dose: 1.4 mg/kg/injection, schedule: Q01DX009 (ip), vehicle: saline) is reported as 100 % of control. The T/C (dose: 2.8 mg/kg/injection, schedule: Q01DX009 (ip), vehicle: saline) was 100 % of control.

In the case of `CN1CCCN(C(c2ccccc2)c2ccc(Cl)cc2)CC1` (stereo not given), the T/C (dose: 6.25 mg/kg/injection, schedule: Q01DX009 (ip), vehicle: saline with Tween-80) is reported as 107 % of control, the T/C (dose: 12.5 mg/kg/injection, schedule: Q01DX009 (ip), vehicle: saline with Tween-80) is reported as 114 % of control and 115 % of control and the T/C (dose: 25.0 mg/kg/injection, schedule: Q01DX009 (ip), vehicle: saline with Tween-80) is reported as 107 % of control and 114 % of control. For the same molecule, the T/C [1] was 120 % of control.

`CC(C)(C)NC1/C(=C\c2ccccc2)C(=O)c2ccccc2C1(C)C` (stereo not given) was tested, and the T/C (dose: 25.0 mg/kg/injection, schedule: Q01DX009 (ip), vehicle: other) was 109 % of control, the T/C (dose: 50.0 mg/kg/injection, schedule: Q01DX009 (ip), vehicle: other) was 101 % of control and the T/C (dose: 100.0 mg/kg/injection, schedule: Q01DX009 (ip), vehicle: other) was 110 % of control. For the same molecule, the T/C (dose: 200.0 mg/kg/injection, schedule: Q01DX009 (ip), vehicle: other) was 124 % of control.
